Experiment [1] addresses T1, cloned human κ opioid receptor (Homo sapiens, UniProt P41145).
T1 construct: expressed in transfected cells
Description: In vitro binding assay, inhibition of [3H]diprenorphine binding, kappa. Particulars: read-out: Ki against the human kappa receptor. The method, then:
(§1) The potencies of the compounds of the invention were determined by testing the ability of a range of concentrations of each compound to inhibit the binding of the non-selective opioid antagonist, [^3H]diprenorphine, to the cloned human μ, κ, and δ opioid receptors, expressed in separate cell lines. IC50 values were obtained by nonlinear analysis of the data using GraphPad Prism version 3.00 for Windows (GraphPad Software, San Diego). Ki values were obtained by Cheng-Prusoff corrections of IC50 values.
(§2) The receptor binding method was a modification of the method of K. Raynor et al. (Mol. Pharmnacol. 1994, 45, 330-334). […] The filters were rinsed 4 times with 1 mL of cold 50 mM Tris HCl, pH 7.8 and radioactivity remaining on the filters determined by scintillation spectroscopy. Nonspecific binding was determined by the minimum values of the titration curves and was confirmed by separate assay wells containing 10 μM naloxone. Ki values were determined by Cheng-Prusoff corrections of IC50 values derived from nonlinear regression fits of 12 point titration curves using GraphPad Prism® version 3.00 for Windows (GraphPad Software, San Diego, Calif.).
(§3) To determine the equilibrium dissociation constant for the inhibitors (Ki), radioligand bound (cpm) in the presence of various concentrations of test compounds was measured. […]

Experiment [2] deals with T2, cloned human a receptors (Homo sapiens, UniProt P41145).
T2 construct: expressed in transfected cells
T2 sequence (P41145 whole entry): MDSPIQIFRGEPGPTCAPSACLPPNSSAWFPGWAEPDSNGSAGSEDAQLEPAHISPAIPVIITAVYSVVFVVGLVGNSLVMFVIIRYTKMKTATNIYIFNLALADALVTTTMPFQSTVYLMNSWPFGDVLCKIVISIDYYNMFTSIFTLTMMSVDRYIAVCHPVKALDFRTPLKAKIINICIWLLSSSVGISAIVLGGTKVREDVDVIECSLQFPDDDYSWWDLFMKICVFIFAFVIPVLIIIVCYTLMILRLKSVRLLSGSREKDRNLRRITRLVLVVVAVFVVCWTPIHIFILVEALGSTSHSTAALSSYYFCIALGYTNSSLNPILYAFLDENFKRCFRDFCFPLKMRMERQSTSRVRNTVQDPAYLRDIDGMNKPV
Description: Stimulation of [35S]GTPγS binding to membranes (agonist potency). It is filed as biochemical. The procedure: The potencies of the agonists were assessed by their abilities to stimulate [^35S]GTPγS binding to membranes containing the cloned human a receptors.
To determine the EC50 value, which was the concentration to give half-maximal stimulation of [^35S]GTPγS binding, the amount of [^35S]GTPγS bound in the presence of various concentrations of agonists was measured. The EC50 value was then determined.

The target in experiment [3] is T3, cloned human δ opioid receptor (Homo sapiens, UniProt P41143).
T3 construct: expressed in transfected cells
T3 sequence (P41143 whole entry): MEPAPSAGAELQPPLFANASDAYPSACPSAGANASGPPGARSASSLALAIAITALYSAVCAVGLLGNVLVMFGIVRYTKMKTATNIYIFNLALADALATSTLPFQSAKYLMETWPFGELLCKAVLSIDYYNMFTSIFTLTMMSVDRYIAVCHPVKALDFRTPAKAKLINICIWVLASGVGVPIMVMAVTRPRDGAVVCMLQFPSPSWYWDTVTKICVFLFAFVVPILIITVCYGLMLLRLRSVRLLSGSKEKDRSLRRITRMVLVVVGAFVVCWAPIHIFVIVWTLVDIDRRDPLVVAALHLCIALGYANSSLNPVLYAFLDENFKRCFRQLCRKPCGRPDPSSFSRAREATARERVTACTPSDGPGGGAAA
The experiment in a line: In vitro binding assay, inhibition of [3H]diprenorphine binding, delta. The following applies: kappa versus δ. The method, then:
as §1, §2, §3

For experiment [4], the system named is formalin-induced flinching. The experiment in a line: In vivo formalin-induced nociception assay. Particulars: dose of 100 μg, i.paw. The arrangement: species or system male Sprague-Dawley rats. From the text: Administration of formalin into the paw results in a localized inflammation and a pain response that is moderate in intensity and continuous in duration. Unlike many other assays of nociception, the formalin assay measures tonic pain that is a result of tissue injury, and therefore is a model which is more relevant to clinical pain states in humans (see Tjolsen et al., Pain 51: 5-17, 1992). In the rat the response to formalin-induced pain consists of spontaneous flinching behavior, characterized by paw lifting and paw shaking, and a rapid vibration of the paw after drawing it under the body. […] The early or acute phase lasts from 0-5 minutes post-formalin and is followed by a quiescent period lasting approximately 15 minutes. The tonic phase occurs from 20-35 minutes following formalin injection and is the interval where the number of flinching responses is maximal. […]
Inflammation is induced by subcutaneous injection of […] of a 5% formalin solution into the dorsal surface of the right hind paw of male Sprague-Dawley rats weighing 70-90 g. Injections of drug are given into the dorsal surface of the paw prior to formalin injection, and flinching behavior is quantitated by counting the number of responses that occur during the tonic phase of pain, lasting from 20-35 min after formalin injection. […]

Experiment [5] relates to acetic acid-induced writhing. Description: Acetic acid-induced writhing. Type of experiment: in vivo, male CF-1 mice. Particulars: Mus musculus, po; administered orally; read-out: ED50, block of acetic acid-induced writhing. The procedure: Injection of acetic acid into the peritoneal cavity is used as the noxious stimulus, and the number of writhing responses that occur in response to acetic acid are counted in order to quantif the response to pain.
The writhing assay is adapted from the procedure originally described by Taber et al. (J. Pharmacol. Exp. Ther. 169: 29-38,1986), using male CF-1 mice weighing 20-25 g. Animals are treated with various doses of drugs prior to the administration of an i.p. injection of 0.6% acetic acid solution. Mice are then placed into observation chambers and the number of writhing responses, as defined by a full hind limb extension and retraction, are recorded.
The mean number of writhing responses is calculated for vehicle-treated control mice, and the percent inhibition (% I) of writhing is calculated for each mouse that is treated with drug using the following formula: % I=100×(mean control writhing responses−individual test responses)(mean control writhing responses) (f) Hyperalgesia Induced by Tape Stripping

For experiment [6], the target named is T4, cloned human μ opioid receptor (Homo sapiens, UniProt P35372).
T4 construct: expressed in transfected cells
T4 sequence (P35372 whole entry): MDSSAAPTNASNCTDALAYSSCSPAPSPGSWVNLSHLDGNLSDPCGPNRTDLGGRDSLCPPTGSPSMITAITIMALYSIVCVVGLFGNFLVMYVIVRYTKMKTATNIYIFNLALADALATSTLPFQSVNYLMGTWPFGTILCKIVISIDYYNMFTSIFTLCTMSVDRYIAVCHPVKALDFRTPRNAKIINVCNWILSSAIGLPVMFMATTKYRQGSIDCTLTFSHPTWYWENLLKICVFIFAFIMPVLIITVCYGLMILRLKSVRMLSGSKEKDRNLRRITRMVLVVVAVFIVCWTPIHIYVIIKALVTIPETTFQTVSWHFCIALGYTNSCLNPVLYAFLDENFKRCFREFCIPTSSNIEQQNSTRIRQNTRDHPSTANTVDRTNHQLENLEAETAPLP
Description: In vitro binding assay, inhibition of [3H]diprenorphine binding, mu. Particulars: kappa versus μ. The procedure: as §1, §2, §3

The source of these data is US6852713B2, “Lactam derivatives and methods of their use” (Adolor Corporation, priority 2003, dated 2005).

Molecules are shown by their SMILES. A value given as a limit tells only on which side of the number the result lay.

T1 sequence (P41145 whole entry): as the sequence (P41145 whole entry) above

For `O=C1C(c2ccc(Cl)c(Cl)c2)CC=CCN1[C@H](CN1CCCC1)c1ccccc1` (stereo partly drawn) [Example 9, 3-(3,4-Dichloro-phenyl)-1-(1-(S)-phenyl-2-pyrrolidin-1-yl-ethyl)-1,3,4,7-tetrahydro-azepin-2-one], in experiment [1], the Ki (in general, the dissociation constant of the complex between target and ligand, obtained from inhibition or displacement) worked out at 1 nM. Moreover, in experiment [2], the EC50 (as a rule, the concentration giving half of the maximal effect) came to 2.5 nM. Moreover, the “selectivity versus the human δ receptor” value in experiment [3] is > 100 ×. Moreover, the “% A (percent antagonism of formalin-induced flinching)” value in experiment [4] is > 80%. Also, in experiment [5], the ED50 (usually the dose that gives a 50% effect, or the effect in half of the subjects) was < 30 mg/kg. Besides, in experiment [6], the “selectivity versus the human μ receptor” value is listed as > 100 ×.
